Consider one compound from BindingDB's records for doi:10.1016/j.bmcl.2005.05.109 (Merck Research Laboratories, 2005).

Structures are written as SMILES.

For orientation: IC50 means the midpoint of a concentration-inhibition curve. Low readings indicate higher potency, high ones lower potency.

The test can be described thus: Inhibition concentration (binding affinity) against […] melanocortin receptor 4 by displacement of [125I]NDP-alpha-MSH from the human receptors expressed in CHO cells. (Displacement assays read how much labelled ligand stays bound in the presence of the test substance.)

The compound `CN1C[C@H]2CC[C@@H]1[C@H](C(=O)N[C@H](Cc1ccc(F)cc1)C(=O)N1CCC(C(=O)NC(C)(C)C)(C3CCCCC3)CC1)C2` [(1R,4S,6R)-2-Methyl-2-aza-bicyclo[2.2.2]octane-6-carboxylic acid [(R)-2-(4-tert-butylcarbamoyl-4-cyclohexyl-piperidin-1-yl)-1-(4-fluoro-benzyl)-2-oxo-ethyl]-amide] had an IC50 of 7 µM.
